Measurements: US20170166870A1, “HUMAN HEPATIC 3D CO-CULTURE MODEL AND USES THEREOF” (Vrije Universiteit Brussel, priority 2014, published 2017)
Values joined by “and” are separate entries in the source; they are usually repeats but may differ in a detail not shown here. Equal entries are not always repeated. Where two headings read alike, the source gives them in different places.

Columns and labels:
3D HepaRG mono-culture [1] = assay: APAP toxicity assay, cell viability by ATP (Cell titer Glo); format: cell-based; settings: Homo sapiens, 0% DMSO, read-out: APAP EC50 values (±stdev)
Method: (§1) APAP toxicity assay was performed in 3D HepaRG/co-culture as well as in 3D HepaRG monoculture. For 24 h, starting at day 20, cells were exposed to a range of APAP concentrations between 0.5 and 80 mM, keeping cells with the solvent (0.1% DMSO) as a control. For some experiments the culture medium was supplemented with 2.5 mM valproic acid (VPA sodium salt, Sigma-Aldrich) or with cytokine mixture (Raicevic et al.,2012)-interleukin (IL)-1β 25 ng/mL (Peprotech, Rocky Hill, N.J., USA), interferon (IFN)-γ 10^3 U/mL, tumor necrosis factor (TNF)-a 50 ng/mL, and IFN-α 3·10^3 U/mL (all from Prospec, Inc., East Brunswick, N.J., USA). For the recovery assay, at the end of APAP incubation, cells were washed using HepaRG culture 0% DMSO medium and kept in the same medium for 3 more days.
(§2) At the end of the incubation period, 5 spheroids per condition were pooled and lysed for RNA analyses, while the remaining spheroids per condition were lysed individually for viability analysis using the Cell titer Glo kit (Promega) for ATP measurements following the instructions of the manufacturer.

3D HSC mono-culture [2] = assay: APAP toxicity on HSC; format: cell-based, human; settings: APAP 0.5-80 mM, 24 h
Method: as §1, with “days. […]” for “days.”
We investigated the effect of APAP on the different cell types by measurement of the two major energy producing pathways assessing at the mitochondrial functional level. For that purpose, we measured the Oxygen Consumption Rate (OCR) and Glycolisis (through proton production—Extracellular Acidification rate, ECAR) using the XF Cell Mito Stress Test Kit (Seahorse Biosciences) 0, 12 and 24 hours of APAP incubation in the three 3D cultures. […]

3D HepaRG mono-culture [3] = assay: mRNA expression of HSC activation markers (qPCR) after APAP incubation; format: cell-based, human; settings: 20 mM APAP, 24h, Assays 1-3
Method: as §1, §2
(§3) Total RNA was extracted from cells using the ReliaPrep RNA Cell Miniprep System (Promega, Madison, Wis.). Reverse-transcription using the Revert Aid Kit (ThermoFisher Scientific, St. Leon-Rot, Germany) allowed conversion of RNA to cDNA. The RT reaction was performed at 25° C. for ten minutes followed by 30 minutes at 50° C. For quantitative real-time polymerase chain reaction (qPCR), GoTaq QPCR Master Mix with BRYTE green (Promega, Madison, Wis.) was used, subjected to qPCR in a 7500 real time PCR system and analysed using System SDS software v2.0.5 (Applied Biosystems), using GAPDH for normalisation.

3D HepaRG/HSC co-culture [4] = assay: as above; format: cell-based, human; settings: additional 3 days in culture upon APAP washout
Method: as §1, §2, §3

3D HSC mono-culture [5] = assay: as above; format: cell-based, human; settings: 20 mM APAP, 24h, Assays 1-3
3D HepaRG mono-culture [6] = assay: Pro-collagen measurement in culture supernatant (Type I C-Peptide); format: cell-based, human; settings: upon APAP incubation, 24 h
Method: (§4) Samples for pro-collagen measurement were five times concentrated using 10 kD Vivaspin 500 ultrafiltration columns (VWR, Radnor, Pa.), the resulting supernatant was analysed for the presence of Type I C-Peptide using the TAKARA (Chanteloup-en-Brie, France) kit.

3D HepaRG/HSC co-culture [7] = assay: as above; format: cell-based, human; settings: upon APAP incubation, 24 h
Method: as §4

3D HepaRG/HSC co-culture [8] = assay: Single and repeated exposure, gene expression of HSC activation markers; format: cell-based, human; settings: for HSC activation (up-regulation of activation markers, mRNA): serum-free medium
Method: Single and repeated exposure. For the single and repeated compound exposure cell spheroids (3D HepaRG/HSC, 3D HepaRG and 3D HSC) were exposed respectively on day 20 for 24 h or every second day from day 8 to day 21 in serum-free medium with no additional solvent. Cells were exposed to a range of 8 concentrations between 0.5 and 80 mM for APAP single-dose, 0.125 and 40 mM for APAP repeated-dose, 0.3 and 500 μM Allyl Alcohol (AA, Sigma-Aldrich), 1.9 and 1000 μM Methotrexate (MTX, Pfizer, NY, USA). For the recovery assay, on day 21, cells were washed using serum-free medium and kept for 3 extra days.
For the cell culture samples, total RNA from 4-6 pooled spheroids was extracted from cells using the RNeasy Micro Kit (Qiagen, Venlo, Limburg, Netherlands). In the mouse assays, sorted HSC from different mice were lysed separately. Total RNA from tissue cultured cells was extracted using ReliaPrep RNA Cell Miniprep System (Promega).
Reverse-transcription using the Revert Aid Kit (ThermoFisher Scientific, Waltham, Massachusetts, USA) allowed conversion of RNA to cDNA. The RT reaction was performed at 25° C. for ten minutes followed by 30 minutes at 50° C. For quantitative real-time polymerase chain reaction (qPCR), GoTaq QPCR Master Mix with BRYTE green (Promega) was used, subjected to qPCR in a 7500 real time PCR system and analysed using System SDS software v2.0.5 (Applied Biosystems, Waltham, Mass., USA), using GAPDH for normalisation. Reliability of GAPDH as house-keeping gene was determined using Normfinder (Anderson et al., 2004). Fold change differences between samples were determined using the comparative Ct (δδCt) method. The expression level of different targets, relative to GAPDH (δCt) and relative to the calibrator, was given by 2^−δδCt.

CC(=O)Nc1ccc(O)cc1 [APAP, Acetaminophen]
EC50 (3D HepaRG mono-culture [1]; 144 h, Day 6/7, current study): 11.6 mM
EC50 (3D HepaRG mono-culture [1]; 504 h, Day 21/22, current study): 11.6 ± 2.15 mM
toxic effect on the HSC (3D HSC mono-culture [2]): only observed at the highest concentrations
Col1a1 mRNA fold increase (3D HepaRG mono-culture [3]): 4.80 +/− 4.83 fold and 3.01 +/− 0.06 fold
aSMA mRNA fold increase (3D HepaRG mono-culture [3]): 0.69 +/− 0.09 fold and 1.06 +/− 0.13 fold
HSC activation markers after washout (3D HepaRG/HSC co-culture [4]): decrease of the HSC activation markers
Loxl2 mRNA fold increase (3D HSC mono-culture [5]): 1.13 +/− 0.05 fold and 0.70 +/− 0.23 fold and 0.85 +/− 0.86 fold
collagen secretion (C-terminal pro-collagen in supernatant) (3D HepaRG mono-culture [6]): not observed
collagen secretion (C-terminal pro-collagen in supernatant) (3D HepaRG/HSC co-culture [7]): significant increase of collagen secretion
concentration of peak HSC activation (3D HepaRG/HSC co-culture [8]; repeated exposure): 5 to 10 mM
HSC activation (up-regulation of activation markers, mRNA) (3D HepaRG/HSC co-culture [8]; repeated exposure): toxicity and HSC activation both in single and repeated-exposure
concentration of peak HSC activation (3D HepaRG/HSC co-culture [8]; single exposure): 20 to 40 mM
recovery of HSC 3 days after compound washout (3D HepaRG/HSC co-culture [8]; single exposure): observed
HSC activation (up-regulation of activation markers, mRNA) (3D HepaRG/HSC co-culture [8]; single exposure 24 h): toxicity and HSC activation both in single and repeated-exposure
